Test results published in patent US20260125359A1, “HETEROARYL COMPOUNDS AS MULTI-TARGET PROTEIN KINASE INHIBITORS” (FUJIAN HAIXI PHARMACEUTICALS CO., LTD., priority 2023, published 2026).

How the values were obtained:
[1] = target: PDGFR-α (Homo sapiens, UniProt P16234); assay: PDGFR-α in vitro kinase activity assay (HTRF kinEASE TK); format: biochemical; details: for inhibition at 0.01 µM: compound 10 nM, read-out: PDGFRα inhibition rate, 10 nM; for inhibition at 0.1 µM: compound 100 nM, read-out: PDGFRα inhibition rate, 100 nM
Chain of PDGFR-α (P16234 24-1089): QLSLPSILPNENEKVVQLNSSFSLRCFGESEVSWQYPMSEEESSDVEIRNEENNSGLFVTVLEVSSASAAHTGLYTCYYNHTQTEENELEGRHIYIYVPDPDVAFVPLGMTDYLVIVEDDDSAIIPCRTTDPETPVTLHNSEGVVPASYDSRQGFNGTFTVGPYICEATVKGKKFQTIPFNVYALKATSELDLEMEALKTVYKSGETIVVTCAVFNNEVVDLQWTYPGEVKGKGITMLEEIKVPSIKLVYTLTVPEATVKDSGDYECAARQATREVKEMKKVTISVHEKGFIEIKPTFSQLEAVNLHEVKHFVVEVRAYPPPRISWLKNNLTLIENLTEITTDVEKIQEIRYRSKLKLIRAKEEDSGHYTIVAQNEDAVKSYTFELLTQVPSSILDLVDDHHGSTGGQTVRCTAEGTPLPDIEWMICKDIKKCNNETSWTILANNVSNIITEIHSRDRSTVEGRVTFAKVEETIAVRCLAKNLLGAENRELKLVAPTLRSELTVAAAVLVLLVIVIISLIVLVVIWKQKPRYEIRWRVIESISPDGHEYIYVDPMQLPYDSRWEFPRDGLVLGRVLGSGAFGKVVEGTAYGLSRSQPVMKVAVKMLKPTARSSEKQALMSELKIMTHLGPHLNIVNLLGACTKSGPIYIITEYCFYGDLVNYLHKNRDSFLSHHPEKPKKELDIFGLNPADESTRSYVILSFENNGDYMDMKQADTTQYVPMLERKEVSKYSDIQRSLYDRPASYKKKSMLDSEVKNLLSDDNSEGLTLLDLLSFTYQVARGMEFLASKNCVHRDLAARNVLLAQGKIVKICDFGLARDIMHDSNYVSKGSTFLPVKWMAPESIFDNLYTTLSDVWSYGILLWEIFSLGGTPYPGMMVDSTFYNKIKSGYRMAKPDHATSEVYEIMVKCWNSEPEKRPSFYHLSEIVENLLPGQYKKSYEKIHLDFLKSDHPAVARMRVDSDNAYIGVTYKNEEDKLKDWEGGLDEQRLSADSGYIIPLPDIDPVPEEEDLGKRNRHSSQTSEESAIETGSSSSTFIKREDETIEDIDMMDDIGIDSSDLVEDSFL
Description: (§1) CSF-1R, PDGFR-α, KDR (VEGFR2) and KIT in vitro Kinase Activity Assay:
(§2) • ENVISION (Perkinelmer, 2104) • White 384-well MicroPlate (Cat #264706, Nunc) • HTRF kinEASE TK kit main reagents (Cat #62TKOPEC, Cisbio) • TK-biotin substrate • Streptavidin-XL665 • TK Antibody-Cryptate • 5× Enzymatic buffer (5×KB) • Staphylococcal enterotoxin B (SEB) • HTRF Detection buffer • CSF-1R (Cat #PV3249, Invitrogen) • PDGFR-α (Cat #PV3811, Invitrogen) • KDR (Cat #PV3660, Invitrogen) • KIT (Cat #08-156, Carna) • ATP 10 mM (Cat #PV3227, Invitrogen) • DTT 1 M (Cat #D5545, Sigma) • MgCl2 1 M (Cat #M8266, Sigma) • MnCl2 1 M (Cat #244589, Sigma)
(§3) Dilute Substrate-TK and ATP to 5× of the reaction concentration using 1× Kinase Buffer.
(§4) Prepare the 5× enzyme working solution using 1× Kinase Buffer.
(§5) Prepare the 4×Sa-XL665 working solution using Detection Buffer.
(§6) Dilute TK-Ab-Cryptate 100 times using Detection Buffer to prepare the working solution.
(§7) After all reagents were prepared according to the methods described above, except for the enzyme, they were equilibrated to room temperature before starting the sample addition. • a) First, 2.5% DMSO solutions were prepared separately using the pre-prepared 1× kinase buffer (DMSO concentrations that were too high could affect the reaction, so the final concentration of DMSO was controlled at 1%). Then, the corresponding 2.5% DMSO solution for the enzyme was used to dilute the test compounds. Compounds were screened with two concentrations of 100 nM and 10 nM. Except for the control wells, 4 μL of the diluted test compound solution was added to the reaction wells, and 4 μL of the pre-prepared 2.5% DMSO solution was added to the control wells. • b) 2 μL of the pre-prepared TK-biotin substrate solution at the corresponding concentration for the kinase was added to all reaction wells. • c) 2 μL of the pre-prepared enzyme solution at the corresponding concentration was added to all reaction wells except the negative control wells. For the negative control wells, 2 μL of 1× kinase buffer corresponding to the enzyme was added to make up the volume. The plate was sealed with sealing film, mixed gently, and incubated at room temperature for 10 min to allow the compounds to fully interact with the enzyme. • d) 2 μL of the ATP solution at the corresponding concentration for the enzyme was added to all reaction wells to initiate the kinase reaction. ATP concentrations and reaction times for enzyme screening are shown in Table 26 • e) Five minutes before the end of the kinase reaction, the detection solution was prepared. The detection buffer from the kit was used to prepare detection solutions for Streptavidin-XL665 and TK antibody europium cryptate (1:100) at the appropriate concentrations for the two enzymes. • f) After the kinase reaction was completed, 5 μL of the diluted Streptavidin-XL665 solution was added to all reaction wells. After mixing, the diluted TK antibody europium cryptate detection solution was immediately added. • g) The plate was sealed and mixed, incubated at room temperature for 1 hour, and the fluorescence signal was detected using the ENVISION (PerkinElmer) instrument (excitation at 320 nm, emission at 665 nm and 615 nm). The inhibition rate for each well was calculated based on the full-activity control wells and background signal wells, and the average value of the replicates was taken.

[2] = target: KDR (VEGFR2) (Homo sapiens, UniProt P35968); assay: KDR (VEGFR2) in vitro kinase activity assay (HTRF kinEASE TK); format: biochemical; details: for inhibition at 0.01 µM: compound 10 nM, read-out: VEGFR2 inhibition rate, 10 nM; for inhibition at 0.1 µM: compound 100 nM, read-out: VEGFR2 inhibition rate, 100 nM
Chain of KDR (VEGFR2) (P35968 20-1356): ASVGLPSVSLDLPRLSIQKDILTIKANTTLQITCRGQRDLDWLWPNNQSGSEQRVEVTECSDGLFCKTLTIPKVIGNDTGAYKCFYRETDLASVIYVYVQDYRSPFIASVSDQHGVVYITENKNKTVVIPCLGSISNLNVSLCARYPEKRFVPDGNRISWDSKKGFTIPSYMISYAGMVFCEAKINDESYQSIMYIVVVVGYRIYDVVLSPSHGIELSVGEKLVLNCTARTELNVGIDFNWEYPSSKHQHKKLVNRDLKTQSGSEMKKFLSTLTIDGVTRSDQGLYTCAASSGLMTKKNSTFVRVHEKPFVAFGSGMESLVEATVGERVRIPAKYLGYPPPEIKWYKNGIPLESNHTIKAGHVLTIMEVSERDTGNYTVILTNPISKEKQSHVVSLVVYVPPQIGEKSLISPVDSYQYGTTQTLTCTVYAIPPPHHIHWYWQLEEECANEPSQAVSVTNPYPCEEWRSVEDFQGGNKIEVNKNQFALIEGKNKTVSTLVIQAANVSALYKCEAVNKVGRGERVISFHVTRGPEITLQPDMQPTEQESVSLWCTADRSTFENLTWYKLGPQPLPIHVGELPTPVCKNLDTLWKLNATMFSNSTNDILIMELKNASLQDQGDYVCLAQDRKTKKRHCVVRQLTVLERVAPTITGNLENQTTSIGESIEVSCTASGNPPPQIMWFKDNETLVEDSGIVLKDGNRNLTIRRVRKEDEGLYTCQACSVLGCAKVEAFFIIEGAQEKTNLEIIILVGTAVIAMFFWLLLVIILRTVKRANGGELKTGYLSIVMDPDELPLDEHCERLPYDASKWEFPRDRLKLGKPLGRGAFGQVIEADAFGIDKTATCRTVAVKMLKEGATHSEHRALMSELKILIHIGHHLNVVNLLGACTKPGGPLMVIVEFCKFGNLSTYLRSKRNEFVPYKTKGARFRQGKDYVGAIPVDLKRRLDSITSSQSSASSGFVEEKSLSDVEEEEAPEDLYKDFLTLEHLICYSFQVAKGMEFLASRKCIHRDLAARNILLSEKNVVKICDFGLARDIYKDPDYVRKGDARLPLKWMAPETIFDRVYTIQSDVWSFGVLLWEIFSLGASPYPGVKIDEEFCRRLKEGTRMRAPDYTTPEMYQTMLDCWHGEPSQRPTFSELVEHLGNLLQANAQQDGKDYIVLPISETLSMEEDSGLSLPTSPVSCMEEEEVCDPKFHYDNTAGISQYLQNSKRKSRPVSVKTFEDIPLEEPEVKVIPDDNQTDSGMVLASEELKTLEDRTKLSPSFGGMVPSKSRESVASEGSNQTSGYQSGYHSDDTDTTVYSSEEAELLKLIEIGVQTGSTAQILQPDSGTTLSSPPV
Description: as §1, §2, §3, §4, §5, §6, §7

SMILES	inhibition at 0.01 µM [1]	inhibition at 0.1 µM [1]	inhibition at 0.01 µM [2]	inhibition at 0.1 µM [2]
Cn1ncc2ncc(N[C@H]3CCc4c(Nc5cc(C(C)(C)C)on5)cccc43)nc21 [Compound 86, (S)—N^4-(5-(tert-butyl)isoxazol-3-yl)-N1-(1-methyl-1H-pyrazolo[3,4-b]pyrazin-6-yl)-2,3-dihydro-1H-indene-1,4-diamine]	26.8%	96.5%	12.9%	70.1%
Cc1cncc(NC(=O)c2cccc3c2CC[C@@H]3Oc2cncc(-c3cnn(C)c3)c2)c1 [Compound 19j]	23.5%	79.7%	91.7%	102%
Cc1cc(NC(=O)c2cccc3c2CC[C@@H]3Oc2cncc(-c3cnn(C)c3)c2)cc(C)n1 [Compound 19k, (S)—N-(2,6-dimethylpyridin-4-yl)-1-((5-(1-methyl-1H-pyrazol-4-yl)pyridin-3-yl)oxy)-2,3-dihydro-1H-indene-4-carboxamide]	13.9%	74.3%	53%	99.1%
Cn1cc(-c2cncc(N[C@H]3CCc4c(Nc5cc(C(C)(C)C)on5)cccc43)c2)cn1 [Compound 41, (S)—N^4-(5-(tert-butyl)isoxazol-3-yl)-N^1-(5-(1-methyl-1H-pyrazol-4-yl)pyridin-3-yl)-2,3-dihydro-1H-indene-1,4-diamine]	55.5%	100%	18.6%	63.9%
Cn1ncc2ncc(N[C@H]3CCc4c(C(=O)Nc5cccc(C6CC6)c5)cccc43)cc21 [Compound 73, (S)—N-(3-cyclopropylphenyl)-1-((1-methyl-1H-pyrazolo[4,3-b]pyridin-6-yl)amino)-2,3-dihydro-1H-indene-4-carboxamide]	90%	100%	68.3%	100%
Cn1cc(-c2cnc(N)c(O[C@H]3CCc4c(C(=O)Nc5cccc(C6CC6)c5)cccc43)c2)cn1 [Compound 4, (S)-1-((2-amino-5-(1-methyl-1H-pyrazol-4-yl)pyridin-3-yl)oxy)-N-(3-cyclopropylphenyl)-2,3-dihydro-1H-indene-4-carboxamide]	90.9%	96.8%	97.8%	100%
CN(C)Cc1cncc(NC(=O)c2cccc3c2CC[C@@H]3Oc2cncc(-c3cnn(C)c3)c2)c1 [Compound 19h]	3.8%	68.3%	24.6%	84.4%
CN(c1cncc(-c2cnn(C)c2)c1)[C@H]1CCc2c(C(=O)Nc3cncc(Cl)c3)cccc21 [Compound 21, (S)—N-(5-chloropyridin-3-yl)-1-(methyl (5-(1-methyl-1H-pyrazol-4-yl)pyridin-3-yl)amino)-2,3-dihydro-1H-indene-4-carboxamide]	7.7%	38.7%	22.3%	62.6%
Cc1cccc(C(=O)Nc2cccc3c2CC[C@@H]3Oc2cncc(-c3cnn(C)c3)c2)c1 [Compound 15, (S)-3-methyl-N-(1-((5-(1-methyl-1H-pyrazol-4-yl)pyridin-3-yl)oxy)-2,3-dihydro-1H-inden-4-yl)benzamide]	39.6%	64%	60%	97.3%
CN1CCc2nc(NC(=O)c3cccc4c3CC[C@@H]4Oc3cncc(-c4cnn(C)c4)c3)sc2C1 [Compound 19f]	14.5%	67.2%	22.7%	88.9%
Cn1cc(-c2cncc(O[C@H]3CCc4c(C(=O)Nc5cccc(C6CC6)c5)cccc43)c2)cn1 [Compound 19b]	22.9%	97.1%	93.6%	102%
Cc1cncc(NC(=O)c2cccc3c2CC[C@@H]3Nc2cncc(-c3cnn(C)c3)c2)c1 [Compound 14as]	91%	101%	88.4%	102%
Cn1cc(-c2cncc(N[C@H]3CCc4c(C(=O)Nc5cncc(Cl)c5)cccc43)c2)cn1 [Compound 14aa, (S)—N-(5-chloropyridin-3-yl)-1-((5-(1-methyl-1H-pyrazol-4-yl)pyridin-3-yl)amino)-2,3-dihydro-1H-indene-4-carboxamide]	72.7%	98.7%	83.1%	99.6%
CN1CCc2nc(NC(=O)c3cccc4c3CC[C@@H]4Nc3cncc(-c4cnn(C)c4)c3)sc2C1 [Compound 14ba]	75.5%	100%	29.2%	82.6%
Cc1cccc(NC(=O)c2cccc3c2CC[C@@H]3Nc2cncc(-c3cnn(C)c3)c2)c1 [Compound 13, (S)-1-((5-(1-methyl-1H-pyrazol-4-yl)pyridin-3-yl)amino)-N-(m-tolyl)-2,3-dihydro-1H-indene-4-carboxamide]	78.7%	99.1%	95.3%	99.5%

Next, values leading:

inhibition at 0.01 µM [1]	inhibition at 0.1 µM [1]	inhibition at 0.01 µM [2]	inhibition at 0.1 µM [2]	SMILES
19%	51.2%	43%	91.9%	CN(c1cnc2cn(C)nc2c1)[C@H]1CCc2c(C(=O)Nc3cncc(Cl)c3)cccc21 [Compound 80k]
32%	85.7%	93.2%	97%	Cc1cccc(NC(=O)c2cccc3c2CC[C@@H]3Oc2cnc3cn(C)nc3c2)n1 [Compound 76bd]
29.3%	94.8%	60.3%	94.9%	Cn1cc2ncc(N[C@H]3CCc4c(C(=O)Nc5nc(C6CC6)cs5)cccc43)cc2n1 [Compound 74h, (S)—N-(4-cyclopropylthiazol-2-yl)-1-((2-methyl-2H-pyrazolo[4,3-b]pyridin-6-yl)amino)-2,3-dihydro-1H-indene-4-carboxamide]
94.7%	98.9%	88.9%	100%	Cn1cc(-c2cncc(N[C@H]3CCc4c(C(=O)Nc5nn(C)c6ccccc56)cccc43)n2)cn1 [Compound 27g, (S)—N-(1-methyl-1H-indazol-3-yl)-1-((6-(1-methyl-1H-pyrazol-4-yl)pyrazin-2-yl)amino)-2,3-dihydro-1H-indene-4-carboxamide]
88.5%	102%	89.9%	101%	Cn1cc2ncc(O[C@H]3CCc4c(C(=O)Nc5nn(C)c6cccc(F)c56)cccc43)cc2n1 [Compound 76aw]
15.4%	57.8%	28.9%	65.6%	Cn1cc(-c2cncc(N[C@H]3CCc4c(Nc5noc(C(C)(C)C)n5)cccc43)c2)cn1 [Compound 42o]
97.6%	97.2%	99.1%	95.6%	Cn1cc2ncc(O[C@H]3CCc4c(C(=O)Nc5nn(C)c6ccccc56)cccc43)cc2n1 [Compound 76al]
69.1%	96.9%	95%	100%	CN(c1cnc2cn(C)nc2c1)[C@H]1CCc2c(C(=O)Nc3nn(C)c4ccccc34)cccc21 [Compound 80l]
